Columns and labels:
[1] = system: patients with a first episode of acute pericarditis; details: at 18 months; conventional treatment plus colchicine 0.5 to 1.0 mg/day for 3 months; p=0.004; cited from earlier work
[2] = system: patients with clinically stable coronary disease; assay: LoDoCo Trial: colchicine 0.5 mg/day added to standard secondary prevention; assay type: in vivo, human
Description: This study is described in PCT/AU2013/001261 and is hereby incorporated in its entirety by reference.
All outcomes were evaluated by an experienced adjudicator blinded to the treatment allocation.
Patients with a history of bypass surgery were only eligible if they had undergone bypass surgery more than 10 years before, or had angiographic evidence of graft failure or had undergone stenting since their bypass surgery. All patients signed informed consent before randomization.
The randomization sequence was computer generated, kept concealed from the investigators at all times and was managed by a research assistant who had no involvement in the evaluation or management of study patients. […] Patients who were intolerant to therapy remained in the study, and were followed in the usual manner and included in the primary intention to treat analysis.
The drug was dispensed by their usual chemist, and if requested, patients were reimbursed for the cost of these scripts. All other treatments were continued as usual.
Patient compliance with treatment and outcome data were collected at routine follow up visits and at the time of any unplanned hospital admission. An acute coronary syndrome (ACS) was defined as either (a) Acute Myocardial Infarction (AMI), as evidenced by acute ischemic chest pain associated with a rise in serum troponin above the upper limit of normal or (b) Unstable Angina (UA), as evidenced by a recent acceleration of the patient's angina unassociated with a rise in serum troponin but associated with angiographic evidence of a change in the patient's coronary anatomy. (Unstable Angina Braunwald classification types IB and IIB). The ACS was characterized as being stent-related if there was evidence of significant in-stent stenosis or acute stent thrombosis. Out of Hospital Cardiac Arrest was defined as either a sudden death as evidenced on the patient's death certificate, or a non-fatal out of hospital cardiac arrest, defined as a recovery from sudden collapse associated with documented asystole, ventricular tachycardia or ventricular fibrillation. Noncardioembolic ischemic stroke was defined as CT or MRI proven ischemic stroke adjudged by the treating neurologist as not being due to atrial fibrillation or intracranial hemorrhage.
The primary efficacy outcome was the composite, ACS, fatal or non-fatal out of hospital cardiac arrest or non-cardio-embolic ischemic stroke. Secondary outcomes were (a) individual components of the primary outcome, and (b) the components of ACS unrelated to stent disease.
The pre-specified study duration was a minimum follow up of two years in all patients. Accordingly the study was closed on May 31, 2012. During May, all living patients were contacted by phone to collect compliance and outcome data from the last date of follow-up.
Summary statistics, including mean and standard deviation were calculated for all baseline characteristics by treatment arm. All time to event outcomes were calculated in days by subtracting the date of randomization from either: (1) the date of event or death; or (2) the trial termination date for those patients not experiencing the defined event. As pre-specified, the primary efficacy analysis was based on the intention-to-treat principle. The intention-to-treat analysis included all randomized subjects and all events during the time from randomization to the trial termination. Trial termination date was fixed as May 31, 2012. A secondary pre-specified on-treatment analysis was also performed, based on patients who were both tolerant and compliant to therapy beyond the first month of randomization.
The time-to-first-event for all outcomes is presented using a Kaplan-Meier plot. […] The secondary outcomes were analysed similarly.

[3] = system: patients with a first episode of recurrent pericarditis; details: at 18 months; conventional treatment plus colchicine 0.5-1.0 mg/d for 6 months; cited from earlier work
[4] = system: patients with clinically stable coronary disease; details: 0.5 mg/day in addition to statins; Nidorf et al., JACC 2013; cited from earlier work

In the case of `COc1cc2c(c(OC)c1OC)-c1ccc(OC)c(=O)cc1[C@@H](NC(C)=O)CC2` [colchicine, N[5,6,7,9-tetrahydro-1,2,3,10-tetratmethoxy 9-oxobenzo[a]heptalen-7-yl],(S)-acetamide], the recurrence rate [1] is listed as 10.7%, the “patients with AMI (ACS unrelated to stent disease)” value ([2]; 0.5 mg/day, 4/282) is listed as 1.4% and the “patients with UA (ACS unrelated to stent disease)” value ([2]; 0.5 mg/day, 5/282) is listed as 1.8%. For the same compound, the “patients with an ACS unrelated to stent disease” value ([2]; 0.5 mg/day, 9/282) was 3.2%, the “patients presenting with an ACS” value ([2]; 0.5 mg/day, 13/282) was 4.6% and the “patients with primary outcome (ACS, out of hospital cardiac arrest or non-cardio-embolic ischemic stroke)” value ([2]; 0.5 mg/day, intention to treat, 15/282, median follow up 36 months) was 5.3%. For the same compound, the “patients reporting early intolerance due to gastrointestinal side effects” value ([2]; 32 of 282 randomized to treatment) was 11%, the patients who died ([2]; colchicine group, all of non-cardiac causes, 10 in control group) was 4 patients and the “out of hospital cardiac arrest and non-cardio-embolic ischemic stroke” value ([2]; treatment group vs control) was “infrequent but were also reduced”. The “recurrence rate (actuarial rate)” value [3] was 24.0% and the “prevention of cardiovascular events” value [4] was “appeared effective”.

Reference: patent US10105319B2 (Murray and Poole Enterprises Limited, priority 2013, dated 2018)
